The source of these data is ChEMBL document CHEMBL2401655, “Synthesis and antiprotozoal activity of novel 2-{[2-(1H-imidazol-1-yl)ethyl]sulfanyl}-1H-benzimidazole derivatives” (Bioorg Med Chem Lett, 2013).

pIC50: −log10 of the molar value.

Common to all, as to format: functional, organism-based
One assay concerns Entamoeba histolytica. Description: Antiprotozoal activity against trophozoite stage of Entamoeba histolytica HM-1:IMSS assessed as growth inhibition after 48 hrs by haemocytometric analysis.
The next assay concerns Giardia intestinalis. Description: Antiprotozoal activity against trophozoite stage of Giardia intestinalis IMSS:0981:1 assessed as growth inhibition after 48 hrs by haemocytometric analysis. As to conditions: Giardia duodenalis, IMSS:0981:1, 48 h.
In the next assay the test system is Trichomonas vaginalis. The experiment in a line: Antiprotozoal activity against trophozoite stage of Trichomonas vaginalis GT3 assessed as growth inhibition after 48 hrs by haemocytometric analysis. As to conditions: GT3, 48 h.

The term pIC50 denotes −log10 of the IC50, conventionally taken in molar units.

`Cn1c(SCCn2ccnc2)nc2cc(Cl)c(Cl)cc21`: the pIC50 is 7.19 in the assay with Entamoeba histolytica, 7.16 with Giardia intestinalis and 7.02 in the assay on Trichomonas vaginalis.

`CCOc1cc2nc(SCCn3ccnc3)n(C)c2cc1Cl`: the pIC50 in the assay on Entamoeba histolytica was 7.83; in the assay on Giardia intestinalis it was 7.68; with Trichomonas vaginalis it was 7.01.

In the case of `CCOc1ccc2nc(SCCn3ccnc3)n(C)c2c1`, the negative logarithm of the IC50 (pIC50) in the assay on Entamoeba histolytica is 7.39; in the assay with Giardia intestinalis, 7.34; with Trichomonas vaginalis, 7.14.

On to `c1ccc2[nH]c(SCCn3ccnc3)nc2c1`, for which the pIC50 in the assay on Entamoeba histolytica is 6.83; in the assay with Giardia intestinalis, 6.93; with Trichomonas vaginalis it was 6.75.

For `CCOc1ccc2[nH]c(SCCn3ccnc3)nc2c1`, the negative-log IC50 (pIC50) was 7.37 with Entamoeba histolytica, 7.25 in the assay with Giardia intestinalis and 7.14 in the assay with Trichomonas vaginalis.

Regarding `Clc1ccc2[nH]c(SCCn3ccnc3)nc2c1`, the pIC50 in the assay with Entamoeba histolytica is 7.13; in the assay with Giardia intestinalis it was 7.09; in the assay with Trichomonas vaginalis, 6.77.

`COC(=O)c1ccc2[nH]c(SCCn3ccnc3)nc2c1`: the pIC50 with Entamoeba histolytica is 7.21; in the assay on Giardia intestinalis, 7.11; in the assay with Trichomonas vaginalis, 6.96.

`COC(=O)c1cc2c(cc1Cl)nc(SCCn1ccnc1)n2C`: the negative logarithm of the IC50 (pIC50) is 7.37 with Entamoeba histolytica, 7.25 with Giardia intestinalis and 7.06 in the assay on Trichomonas vaginalis.

For `CCOc1cc2c(cc1Cl)nc(SCCn1ccnc1)n2C`, the results for the pIC50 in the assay on Entamoeba histolytica, in the assay with Giardia intestinalis and in the assay with Trichomonas vaginalis were 7.34, 7.45 and 7.16, respectively.

As for `COC(=O)c1ccc2c(c1)nc(SCCn1ccnc1)n2C`, the pIC50 was 7.37 with Entamoeba histolytica, 7.21 in the assay with Giardia intestinalis and 7.11 in the assay with Trichomonas vaginalis.

Turning to `Cn1c(SCCn2ccnc2)nc2ccc(Cl)cc21`, the values for the negative logarithm of the IC50 (pIC50) with Entamoeba histolytica, with Giardia intestinalis and with Trichomonas vaginalis were 7.17, 7.20 and 6.89, respectively.

For `COC(=O)c1cc2nc(SCCn3ccnc3)n(C)c2cc1Cl`, the pIC50 with Entamoeba histolytica is 7.29; in the assay on Giardia intestinalis, 7.35; with Trichomonas vaginalis it was 7.03.

As to `COC(=O)c1cc2nc(SCCn3ccnc3)[nH]c2cc1Cl`, the negative logarithm of the IC50 (pIC50) in the assay on Entamoeba histolytica is 7.24; with Giardia intestinalis, 7.26; in the assay on Trichomonas vaginalis it was 7.14.

As for `CCOc1ccc2c(c1)nc(SCCn1ccnc1)n2C`, the figures for the negative-log IC50 (pIC50) with Entamoeba histolytica, with Giardia intestinalis and in the assay with Trichomonas vaginalis were 7.53, 8.08 and 7.12, respectively.

In the case of `COC(=O)c1ccc2nc(SCCn3ccnc3)n(C)c2c1`, the negative logarithm of the IC50 (pIC50) in the assay with Entamoeba histolytica was 7.28; in the assay with Giardia intestinalis, 7.24; with Trichomonas vaginalis, 6.94.

Regarding `Cn1c(SCCn2ccnc2)nc2cc(Cl)ccc21`, the negative logarithm of the IC50 (pIC50) in the assay on Entamoeba histolytica was 7.18; in the assay on Giardia intestinalis it was 7.18; in the assay with Trichomonas vaginalis it was 6.87.

Take `CCOc1cc2nc(SCCn3ccnc3)[nH]c2cc1Cl`: the pIC50 was 7.21 in the assay on Entamoeba histolytica, 7.33 with Giardia intestinalis and 7.00 with Trichomonas vaginalis.

For `Cc1ncc([N+](=O)[O-])n1CCO` [METRONIDAZOLE], in the assay with Entamoeba histolytica, the negative-log IC50 (pIC50) is 6.42.

Take `Cn1c(SCCn2ccnc2)nc2ccccc21`: the values for the pIC50 in the assay with Entamoeba histolytica, with Giardia intestinalis and with Trichomonas vaginalis were 7.11, 7.06 and 6.83, respectively.

With `Clc1cc2nc(SCCn3ccnc3)[nH]c2cc1Cl`, the figures for the negative logarithm of the IC50 (pIC50) in the assay with Entamoeba histolytica, in the assay with Giardia intestinalis and in the assay on Trichomonas vaginalis were 7.23, 7.12 and 6.85, respectively.
